Measured values taken from ChEMBL document CHEMBL2311284, “A novel series of N-(azetidin-3-yl)-2-(heteroarylamino)acetamide CCR2 antagonists” (Bioorg Med Chem Lett, 2013).

How the values were obtained:
[1] = Oral bioavailability in rat at 10 mg/kg; type: ADME, organism-based; conditions: in vivo
[2] = AUClast in rat at 2 mg/kg, iv and 10 mg/kg, po; conditions: plasma
[3] = Clearance in rat at 2 mg/kg, iv and 10 mg/kg, po; conditions: in vivo
[4] = Volume of distribution at steady state in rat at 2 mg/kg, iv and 10 mg/kg, po; conditions: in vivo, read-out: Vdss

Compound | bioavailability [1] | AUC(0-t) [2] | clearance [3] | Vd [4]
O=C(CNc1ncnc2ccc(C(F)(F)F)cc12)NC1CN([C@H]2CC[C@@](O)(c3cncs3)CC2)C1 | 0.3% | 10.6 ng·h/mL | 89 mL/min/kg | 8.5 L/kg
N#Cc1cc(NCC(=O)NC2CN([C@H]3CC[C@@](O)(c4cncs4)CC3)C2)c2cc(C(F)(F)F)ccc2n1 | 0.5% | 6 ng·h/mL | 148 mL/min/kg | 13 L/kg
